Consider one compound from US4016254A, “Pharmaceutical formulations” (Beecham Group Limited, priority 1972, dated 1977).

Holding throughout (format): physicochemical
A short description of data set [1]: Potency, Examples 15-56 (determined in conventional manner). The procedure:
The moisture contents of these powders were determined by the Karl Fischer method. The potency of the product was determined in conventional manner.

The nature of data set [2]: Bulk densities, Examples 1-14.
Data set [3] can be described thus: Flow properties: angle of repose.

In the case of `CC1(C)S[C@@H]2[C@H](NC(=O)[C@H](N)c3ccccc3)C(=O)N2[C@H]1C(=O)O` [ampicillin trihydrate raw material, ampicillin trihydrate], the “Potency of ampicillin trihydrate raw materials” value was found to be 83% in data set [1] (raw material of Examples 15-29 and 41-48); 84% in data set [1] (raw material of Examples 30-40); 86% in data set [1] (raw material of Examples 49-56). Besides, the “Bulk Density” value in data set [2] stood at 0.67. Also, in data set [3], the “Angle of repose of raw material” value was 64 °.
